Assay results as given in patent US20080319084A1, “Wrinkling Prevention or Remedy with Adam Activity Inhibiting Substance” (Shiseido Company, Ltd., priority 2004, published 2008).

Tests used:
[1] = tested on: finely wrinkled mouse model; assay: Evaluation of anti-wrinkling effects of ADAM activity inhibiting substances in finely wrinkled mouse model (visual score, wrinkle area); type: in vivo, hairless mouse (HR-1); conditions: for mean value of the wrinkle score (visual judgment, 0 no wrinkle to 3 deep wrinkles): after four weeks, 1 mM TAPI-1 or 1% 4-methoxybenzohydroxamic acid in 50% aqueous ethanol, 100 μl after each tape stripping, vehicle 1.17; for mean value of the wrinkle area (%) versus vehicle: replica analysis after four weeks, 1 mM TAPI-1 or 1% 4-methoxybenzohydroxamic acid
Method: The anti-wrinkling effects of TAPI-1 and 4-methoxybenzohydroxamic acid acting as the ADAM activity inhibiting substances were studied by use of the finely wrinkled mouse model.
Specifically, on the skin on the left side of the dorsal section of a hairless mouse (HR-1, male, six weeks of age, supplied by Hoshino Experimental Animals), the tape stripping was performed in three stages per week and was continued for four weeks such that the transepidermal water loss (TEWL) (as measured by use of a water evaporation quantity measuring apparatus MEECO, supplied by Meeco Co., U.S.A) might fall within the range of 4 mg/cm^2/h to 8 mg/cm^2/h. Immediately after each stage of the tape stripping processing had been performed, 100 μl of TAPI-1 or 4-methoxybenzohydroxamic acid was applied to the skin on the left side of the dorsal section of the mouse. At this time, 4-methoxybenzohydroxamic acid was dissolved in a 50% aqueous ethanol solution such that the concentration of 4-methoxybenzohydroxamic acid might become equal to 1%, and 4-methoxybenzohydroxamic acid was used in the form of the resulting solution. Also, TAPI-1 (supplied by Peptide Research Institute) was evaluated at a concentration of 1 mM. Further, as a negative control, a 50% aqueous ethanol solution (i.e., a vehicle) was applied in the same manner as that described above.
The state of occurrence of wrinkles after a period of four weeks had elapsed was expressed by scores with visual judgment. The state of occurrence of wrinkles was evaluated with the rating described below. • 0: No wrinkle • 1: shallow wrinkles • 2: clear wrinkles • 3: Deep wrinkles The state of occurrence of wrinkles was expressed by the scores at intervals of 0.5. A larger score represents deeper wrinkles. The mean value and the standard deviation of each group were calculated. The results illustrated in FIG. 5 were obtained.
Thereafter, the replicas of the dorsal section of the mouse were analyzed by use of a wrinkle analyzing apparatus (supplied by Hamano Engineering), and the wrinkle area (%) was calculated. A low wrinkle area percentage represents that the wrinkle formation has been suppressed. The results illustrated in FIG. 6 were obtained.

ADAM enzyme = assay: Screening of ADAM activity inhibiting substance: TPA-induced HB-EGF-AP release from HB-EGF-AP/HT-1080 cells; type: cell-based, human; conditions: 60 nM TPA, 60 minutes
Method: Firstly, the screening of a compound having the ADAM enzyme inhibiting activity was performed by use of HB-EGF-AP/HT-1080 (human fibrosarcoma-derived cultured cells HT-1080 having been modified so as to achieve forcible expression of a fusion protein, in which heat-resistant alkaline phosphatase (AP) has been added to an N terminal of human HB-EGF). On the surfaces of the cells of the used cell strain HB-EGF-AP/HT-1080, the HB-EGF entire length molecule is expressed in the form fused with the alkaline phosphatase. In cases where the cells are excited by a phorbol ester, the ADAM enzyme on the cell membrane surfaces is activated to cut the HB-EGF molecule. Since alkaline phosphatase has been bound to HB-EGF having been cut into the released form, in cases where the alkaline phosphatase activity in a culture supernatant is measured, the ADAM enzyme inhibiting activity of the compound is capable of being measured indirectly.
Specifically, HB-EGF-AP/HT-1080, in which the number of cells had been adjusted at 2.0×10^5 cells/ml, was sowed at a rate of 0.2 ml/well to a 96-well culture micro-plate and was cultured overnight at a temperature of 37° C. […] After the incubation was performed at the room temperature for two hours under a light blocking condition, the absorbance in each well at the wavelength of 405 nm was measured again. […]

[2] = tested on: finely wrinkled mouse model; assay: Anti-wrinkling effects of medicine application on finely wrinkled mouse model (tape stripping); type: in vivo, hairless mouse (HR-1); set-up: key to Wrinkling suppressing effects / Epidermal hyperplasia suppressing effects / Dermal hyperplasia suppressing effects: O: Remedied.; Δ: No alteration was found.; x: Aggravated; conditions: for Dermal hyperplasia suppressing effects / Epidermal hyperplasia suppressing effects / Wrinkling suppressing effects: 100 μl applied to skin after each tape stripping, 2 mM TAPI-1, 1% CGS27023A, 10% glycerol, 1% oleic acid; for Dermal hyperplasia suppressing effects / Epidermal hyperplasia suppressing effects: four weeks, HE-stained slices; for Wrinkling suppressing effects: up to four weeks; for hyperplasia of the epidermis and the dermis (in words) / wrinkle formation (in words): finely wrinkled mouse model, topical application
Method: It is considered that, in cases where the skin barrier is weakened or disrupted by various primary factors, such as a decrease in sebum and face washing, and water evaporation from the skin surface increases, the skin dries, and the fine wrinkles are formed. Therefore, tape stripping was repeatedly performed on the skin of a hairless mouse, the stratum corneum of thus peeled off, and the skin barrier was broken. In this manner, a finely wrinkled mouse model was prepared. Specifically, the tape stripping with cellophane adhesive tapes was performed on the skin on the left side of the dorsal section of a hairless mouse (HR-1, male, six weeks of age, supplied by Hoshino Experimental Animals) with the number of times of the tape stripping being adjusted such that a transepidermal water loss (TEWL) (as measured by use of a water evaporation quantity measuring apparatus MEECO, supplied by Meeco Co., U.S.A) might fall within the range of 4 mg/cm^2/h to 6 mg/cm^2/h. Ordinarily, at the initial stage, the tape stripping was iterated approximately four times. At the final stage, the tape stripping was iterated seven to eight times. The tape stripping was performed in three stages per week and was continued for four weeks. The right side of the dorsal section of the hairless mouse was left to stand as a non-treatment area. Studies were made with respect to the anti-wrinkling effects of the application of various medicines, which were listed in Table 2 below, on the finely wrinkled mouse model. Specifically, the tape stripping was performed on a hairless mouse in the manner described above. After each tape stripping processing, 100 μl of each of the medicines listed in Table 2 was applied to the skin of the hairless mouse. FIG. 4A is a diagram showing replica images of skins having been applied with different medicines in the finely wrinkled mouse model, which replica images have been taken at stages one week, two weeks, and four weeks after the application of each of the medicines. FIG. 4B is a diagram showing microscopic photographs of skin tissue slices of the skins at the stage four weeks after the application of each of the medicines, which skin tissue slices have been stained with HE (hematoxylin-eosin).

Photo-aged mouse model = assay: Wrinkle formation in Photo-aged mouse model (UV light irradiation); type: in vivo
Method: FIG. 2A is a diagram showing replica images of the mouse skin having been subjected to the tape stripping in the manner described above. FIG. 2B is a diagram showing microscopic photographs of a skin tissue slice of the mouse skin, which skin tissue slice has been stained with HE (hematoxylin-eosin). As illustrated in the replica images (FIG. 2A), skin ditches became deep at the stage 24 hours (24 h) after the beginning of the tape stripping and at the stage 48 hours (48 h) after the beginning of the tape stripping. At the stage one week (1 W) after the beginning of the tape stripping, the directions of the skin ditches coincided with predetermined directions. At the stage four weeks (4 W) after the beginning of the tape stripping, a wrinkle-like appearance occurred. […] At the stage two weeks (2 W) after the beginning of the tape stripping, the epidermal hyperplasia was kept. Table 1 shown below lists morphological alterations, histological alterations, and the like, of the finely wrinkled mouse model having been prepared in the manner described above together with the morphological alterations, histological alterations, and the like, of a Photo-aged mouse model having been prepared with UV light irradiation (for 10 weeks).

| Compound | mean value of the wrinkle score (visual judgment, 0 no wrinkle to 3 deep wrinkles) [1] | mean value of the wrinkle area (%) versus vehicle [1] | Inhibition rate (%) of HB-EGF release (ADAM enzyme; concentration 10 μg/ml) [%] | Inhibition rate (%) of HB-EGF release (ADAM enzyme; concentration 50 μg/ml) [%] | Dermal hyperplasia suppressing effects [2] | Epidermal hyperplasia suppressing effects [2] | Wrinkling suppressing effects [2] | hyperplasia of the epidermis and the dermis (in words) [2] | wrinkle formation (in words) [2] | wrinkle formation preventing effects (in words) (Photo-aged mouse model) |
| --- | --- | --- | --- | --- | --- | --- | --- | --- | --- | --- |
| COc1ccc(C(=O)NO)cc1 [4-Methoxybenzohydroxamic acid] | 0.91 | significantly lower | 14.8 | 55.8 |  |  |  |  |  |  |
| COc1ccc(S(=O)(=O)N(Cc2cccnc2)[C@@H](C(=O)NO)C(C)C)cc1 [CGS27023A] |  |  |  |  | Δ | Δ | Δ | not capable of suppressing the hyperplasia of the epidermis and the dermis | not capable of suppressing the wrinkle formation at all | exhibited the wrinkle formation preventing effects |
| CC(C)C[C@H](CC(=O)NO)C(=O)N[C@@H](Cc1ccc2ccccc2c1)C(=O)N[C@@H](C)C(=O)NCCN [TAPI-1, N—(R)-(2-(Hydroxyaminocarbonyl)methyl)-4-Methylpentanoyl-L-Nal-L-Alanine 2-Aminoethyl amide] | 0.43 | significantly lower |  |  | ∘ | ∘ | ∘ | markedly suppressed the hyperplasia of the epidermis and the dermis | suppressed the wrinkle formation |  |
| OCC(O)CO [Glycerol] |  |  |  |  | Δ | x | Δ | not capable of suppressing the hyperplasia of the epidermis and the dermis | not capable of suppressing the wrinkle formation at all |  |
| CCCCCCCC/C=C\CCCCCCCC(=O)O [Oleic acid] |  |  |  |  | x | x | x | accelerated the hyperplasia of the epidermis and the dermis | promoted the wrinkle formation |  |
